We go through 19 molecules from the supplement of paper PMC8967900.
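Note: ALL cell lines in 384-well plates, five doses spanning 10,000-fold, each plate scaled between vehicle and 100 µmol/L benzalkonium chloride controls, sDSS an adapted area-under-curve metric.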

The subject of the first assay is P30-OHKUBO. Description: selective drug sensitivity score (sDSS, relative to normal bone marrow) (sDSS (score)); higher = more potent and effective on the cell line relative to normal bone marrow cells. The settings on record: 72 h.
Turning to `NCCNc1ccc(NCCN)c2c1C(=O)c1ccncc1C2=O` [Pixantrone] (top concentration 10000 nM), the “selective drug sensitivity score” value was -1.06.

Turning to `c1cc(CN2CCCNCCNCCCNCC2)ccc1CN1CCCNCCNCCCNCC1` [Plerixafor] (top concentration 10000 nM), the “selective drug sensitivity score” value is 0.

Take `O=C(c1ccc(OCCN2CCCCC2)cc1)c1c(-c2ccc(O)cc2)sc2cc(O)ccc12` [Raloxifene] (top concentration 10000 nM): the “selective drug sensitivity score” value worked out at 1.82.

For `CN(C)C(=O)c1cc2cnc(Nc3ccc(N4CCNCC4)cn3)nc2n1C1CCCC1` [Ribociclib] (top concentration 10000 nM), the “selective drug sensitivity score” value came to 6.58.

Take `CN1CCN(CCOc2cc(OC3CCOCC3)c3c(Nc4c(Cl)ccc5c4OCO5)ncnc3c2)CC1` [Saracatinib] (top concentration 10000 nM): the “selective drug sensitivity score” value was 5.58.

On to `C=CC(=O)Nc1cccc(Nc2nc(Nc3ccc(OCCOC)cc3)ncc2F)c1` [Spebrutinib] (top concentration 1000 nM), for which the “selective drug sensitivity score” value was found to be 4.64.

For the molecule `C[C@@H]1CN(Cc2ccc(F)cc2)[C@@H](C)CN1C(=O)c1cc2c(C(=O)C(=O)N(C)C)cn(C)c2cc1Cl` [Talmapimod] (top concentration 10000 nM), the “selective drug sensitivity score” value was found to be 0.2.

With `C[C@@H](C(=O)O)c1ccc(-c2ccccc2)c(F)c1` [Tarenflurbil] (top concentration 10000 nM), the “selective drug sensitivity score” value was -0.16.

As to `CNC(=O)c1cc(COc2nnc(Nc3ccc(Cl)cc3)c3ccoc23)ccn1` [Telatinib] (top concentration 10000 nM), the “selective drug sensitivity score” value amounted to 2.9.

For the molecule `O=c1sn(-c2cccc3ccccc23)c(=O)n1Cc1ccccc1` [Tideglusib] (top concentration 3000 nM), the “selective drug sensitivity score” value is -0.3.

`COc1cc2nccc(Oc3ccc(NC(=O)Nc4cc(C)on4)c(Cl)c3)c2cc1OC` [Tivozanib] (top concentration 10000 nM): the “selective drug sensitivity score” value stood at 4.56.

As to `Cc1cc(Nc2cc(N3CCN(C)CC3)nc(Sc3ccc(NC(=O)C4CC4)cc3)n2)n[nH]1` [Tozasertib] (top concentration 10000 nM), the “selective drug sensitivity score” value amounted to 22.2.

Regarding `CC1=C(/C=C/C(C)=C/C=C/C(C)=C/C(=O)O)C(C)(C)CCC1` [Tretinoin] (top concentration 10000 nM), the “selective drug sensitivity score” value is -2.4.

Regarding `COC(=O)c1ccc2c(c1)[nH]c1ncnc(NCCCN3CCCCC3)c12` [UM729] (top concentration 10000 nM), the “selective drug sensitivity score” value turned out to be 1.44.

As for `COc1cc2c(NC3CCN(C(C)C)CC3)nc(N3CCC(F)(F)CC3)nc2cc1OCCCN1CCCC1` [UNC0642] (top concentration 10000 nM), the “selective drug sensitivity score” value stood at 2.06.

With `O=C(c1ccc(C(=O)N2CCC(N3CCCC3)CC2)c(Nc2ccccc2)c1)N1CCC(N2CCCC2)CC1` [UNC1215] (top concentration 10000 nM), the “selective drug sensitivity score” value worked out at 0.

Turning to `CCCC(CCC)C(=O)O` [Valproic_acid] (top concentration 1000000 nM), the “selective drug sensitivity score” value came to 0.

As for `Clc1ccc(Nc2nnc(Cc3ccncc3)c3ccccc23)cc1` [Vatalanib] (top concentration 10000 nM), the “selective drug sensitivity score” value came out at 0.

Consider `CCCS(=O)(=O)Nc1ccc(F)c(C(=O)c2c[nH]c3ncc(-c4ccc(Cl)cc4)cc23)c1F` [Vemurafenib] (top concentration 10000 nM), for which the “selective drug sensitivity score” value came to 3.86.

The subject of the next assay is COG-LL-332h. The assay is described as above. The settings on record: 72 h.
In the case of `NCCNc1ccc(NCCN)c2c1C(=O)c1ccncc1C2=O` [Pixantrone] (top concentration 10000 nM), the “selective drug sensitivity score” value is -2.46.

With `c1cc(CN2CCCNCCNCCCNCC2)ccc1CN1CCCNCCNCCCNCC1` [Plerixafor] (top concentration 10000 nM), the “selective drug sensitivity score” value came out at 0.

Consider `O=C(c1ccc(OCCN2CCCCC2)cc1)c1c(-c2ccc(O)cc2)sc2cc(O)ccc12` [Raloxifene] (top concentration 10000 nM), for which the “selective drug sensitivity score” value was 0.92.

In the case of `CN(C)C(=O)c1cc2cnc(Nc3ccc(N4CCNCC4)cn3)nc2n1C1CCCC1` [Ribociclib] (top concentration 10000 nM), the “selective drug sensitivity score” value is 1.58.

For the molecule `CN1CCN(CCOc2cc(OC3CCOCC3)c3c(Nc4c(Cl)ccc5c4OCO5)ncnc3c2)CC1` [Saracatinib] (top concentration 10000 nM), the “selective drug sensitivity score” value came to 7.38.

Turning to `C=CC(=O)Nc1cccc(Nc2nc(Nc3ccc(OCCOC)cc3)ncc2F)c1` [Spebrutinib] (top concentration 1000 nM), the “selective drug sensitivity score” value is -0.16.

`C[C@@H]1CN(Cc2ccc(F)cc2)[C@@H](C)CN1C(=O)c1cc2c(C(=O)C(=O)N(C)C)cn(C)c2cc1Cl` [Talmapimod] (top concentration 10000 nM): the “selective drug sensitivity score” value came to 0.

`C[C@@H](C(=O)O)c1ccc(-c2ccccc2)c(F)c1` [Tarenflurbil] (top concentration 10000 nM): the “selective drug sensitivity score” value worked out at 4.14.

Consider `CNC(=O)c1cc(COc2nnc(Nc3ccc(Cl)cc3)c3ccoc23)ccn1` [Telatinib] (top concentration 10000 nM), for which the “selective drug sensitivity score” value was determined as 0.

With `O=c1sn(-c2cccc3ccccc23)c(=O)n1Cc1ccccc1` [Tideglusib] (top concentration 3000 nM), the “selective drug sensitivity score” value is -0.3.

In the case of `COc1cc2nccc(Oc3ccc(NC(=O)Nc4cc(C)on4)c(Cl)c3)c2cc1OC` [Tivozanib] (top concentration 10000 nM), the “selective drug sensitivity score” value was 12.2.

With `Cc1cc(Nc2cc(N3CCN(C)CC3)nc(Sc3ccc(NC(=O)C4CC4)cc3)n2)n[nH]1` [Tozasertib] (top concentration 10000 nM), the “selective drug sensitivity score” value amounted to 19.9.

For `CC1=C(/C=C/C(C)=C/C=C/C(C)=C/C(=O)O)C(C)(C)CCC1` [Tretinoin] (top concentration 10000 nM), the “selective drug sensitivity score” value was -2.4.

As to `COC(=O)c1ccc2c(c1)[nH]c1ncnc(NCCCN3CCCCC3)c12` [UM729] (top concentration 10000 nM), the “selective drug sensitivity score” value stood at 1.94.

In the case of `COc1cc2c(NC3CCN(C(C)C)CC3)nc(N3CCC(F)(F)CC3)nc2cc1OCCCN1CCCC1` [UNC0642] (top concentration 10000 nM), the “selective drug sensitivity score” value worked out at 1.46.

With `O=C(c1ccc(C(=O)N2CCC(N3CCCC3)CC2)c(Nc2ccccc2)c1)N1CCC(N2CCCC2)CC1` [UNC1215] (top concentration 10000 nM), the “selective drug sensitivity score” value amounted to 0.

`CCCC(CCC)C(=O)O` [Valproic_acid] (top concentration 1000000 nM): the “selective drug sensitivity score” value stood at 0.

As for `Clc1ccc(Nc2nnc(Cc3ccncc3)c3ccccc23)cc1` [Vatalanib] (top concentration 10000 nM), the “selective drug sensitivity score” value stood at 0.7.

As for `CCCS(=O)(=O)Nc1ccc(F)c(C(=O)c2c[nH]c3ncc(-c4ccc(Cl)cc4)cc23)c1F` [Vemurafenib] (top concentration 10000 nM), the “selective drug sensitivity score” value worked out at 2.96.

Another assay relates to TMD5. Described as above. Conditions: 72 h.
Regarding `NCCNc1ccc(NCCN)c2c1C(=O)c1ccncc1C2=O` [Pixantrone] (top concentration 10000 nM), the “selective drug sensitivity score” value is -2.06.

Take `c1cc(CN2CCCNCCNCCCNCC2)ccc1CN1CCCNCCNCCCNCC1` [Plerixafor] (top concentration 10000 nM): the “selective drug sensitivity score” value was 0.

On to `O=C(c1ccc(OCCN2CCCCC2)cc1)c1c(-c2ccc(O)cc2)sc2cc(O)ccc12` [Raloxifene] (top concentration 10000 nM), for which the “selective drug sensitivity score” value was -1.88.

For the molecule `CN(C)C(=O)c1cc2cnc(Nc3ccc(N4CCNCC4)cn3)nc2n1C1CCCC1` [Ribociclib] (top concentration 10000 nM), the “selective drug sensitivity score” value is 0.78.

`CN1CCN(CCOc2cc(OC3CCOCC3)c3c(Nc4c(Cl)ccc5c4OCO5)ncnc3c2)CC1` [Saracatinib] (top concentration 10000 nM): the “selective drug sensitivity score” value turned out to be 0.58.

Regarding `C=CC(=O)Nc1cccc(Nc2nc(Nc3ccc(OCCOC)cc3)ncc2F)c1` [Spebrutinib] (top concentration 1000 nM), the “selective drug sensitivity score” value was -0.16.

Regarding `C[C@@H]1CN(Cc2ccc(F)cc2)[C@@H](C)CN1C(=O)c1cc2c(C(=O)C(=O)N(C)C)cn(C)c2cc1Cl` [Talmapimod] (top concentration 10000 nM), the “selective drug sensitivity score” value was determined as 0.

Regarding `C[C@@H](C(=O)O)c1ccc(-c2ccccc2)c(F)c1` [Tarenflurbil] (top concentration 10000 nM), the “selective drug sensitivity score” value was 3.64.

For the molecule `CNC(=O)c1cc(COc2nnc(Nc3ccc(Cl)cc3)c3ccoc23)ccn1` [Telatinib] (top concentration 10000 nM), the “selective drug sensitivity score” value was 0.9.
